Test results reported in PubChem BioAssay (NCI).
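48-hour exposure; five concentrations; linearly interpolated endpoints. GI50 is the concentration that inhibits growth by half. TGI marks complete inhibition of growth.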

What was measured:
Experiment in all cases: DTP human tumour cell line panel, 48 h
[1] = test system: SR leukemia
[2] = test system: DU-145 prostate
[3] = test system: SK-MEL-28 melanoma
[4] = test system: SNB-19 CNS
[5] = test system: OVCAR-5 ovarian
[6] = test system: RPMI-8226 leukemia
[7] = test system: A498 renal
[8] = test system: HCC-2998 colon
[9] = test system: LOX IMVI melanoma
[10] = test system: A549 NSCLC
[11] = test system: IGROV1 ovarian
[12] = test system: EKVX NSCLC
[13] = test system: HCT-15 colon
[14] = test system: SNB-75 CNS
[15] = test system: M14 melanoma
[16] = test system: OVCAR-8 ovarian
[17] = test system: K-562 leukemia

Compound	TGI [1] [µM]	TGI [2] [µM]	TGI [3] [µM]	TGI [4] [µM]	TGI [5] [µM]	GI50 [6] [µM]	TGI [6] [µM]	TGI [7] [µM]	TGI [8] [µM]	TGI [9] [µM]	TGI [10] [µM]	TGI [11] [µM]	TGI [12] [µM]	TGI [13] [µM]	TGI [14] [µM]	TGI [15] [µM]	TGI [16] [µM]	TGI [17] [µM]	GI50 [2] [µM]	GI50 [4] [µM]
N=C1C(=N)c2ccccc2-c2ccccc21	6.46	2.82	3.35	3.01	3.43	1.75	> 100	4.13	3.47	1.02	3.66	3.93	3.62	2.99	3.25	2.36				
CCCNC(=S)/N=C\c1c(O)c2ccccc2oc1=O	> 100	> 100	> 100	> 100	> 100			> 100	> 100	> 100	> 100	> 100	> 100	> 100	> 100	> 100	> 100			
COC(=N)C12C(N)=NC(OC)(OC)C1(C#N)C21C(=O)N(c2ccccc2)N=C1C (stereo not given)	> 100	> 100	> 100	> 100	> 100		> 100	> 100	> 100		> 100	> 100	> 100	> 100	> 100	> 100	> 100	> 100		
Cc1sc2nc3n(c(=O)c2c1C)N=C(c1ccc(Cl)cc1)CS3	> 100	> 100	> 100		> 100		> 100	> 100	> 100	> 100	> 100		> 100	> 100	> 100		> 100	> 100		
CC1(C)OCC(C2OC(N3O[C@H](CI)C[C@@H]3c3ccccc3)C3OC(C)(C)OC23)O1 (stereo not given in full)	> 100	> 100	> 100	> 100	> 100		> 100	> 100	> 100	> 100	> 100	> 100	> 100	> 100	> 100	> 100		> 100		
Cc1ccc(S(=O)(=O)NNC(=S)Nc2cccc3ccccc23)cc1	> 100	> 100	> 100	> 100	> 100		> 100	99.5	> 100		> 100	> 100	> 100	> 100	77.5	> 100	> 100	> 100		
O=C(Nc1nc(C23CC4CC(CC(C4)C2)C3)cs1)c1cc2cc(Br)cc(Br)c2oc1=O	> 100	> 100	> 100	> 100	> 100		> 100	> 100	> 100	> 100	> 100	> 100	> 100	> 100	85.5		> 100	> 100		
COC(=O)C1(O)c2ccccc2N=C2C(=O)c3ccccc3N21 (stereo not given)	> 100	> 100	> 100		> 100		> 100	> 100	> 100	> 100	> 100	> 100	> 100	> 100	> 100		> 100	> 100		
CC(=O)OC1COC(n2c(N)c(C#N)c(C)c(C#N)c2=S)C(OC(C)=O)C1OC(C)=O (stereo not given)	> 100	> 100	> 100	> 100	> 100		> 100	> 100	> 100	> 100	> 100	> 100		> 100	> 100	> 100	> 100	> 100	> 100	> 100
OC1CC(O)c2c(Cl)sc(Cl)c21 (stereo not given)	> 100	> 100	> 100		> 100			> 100		> 100	89.2	> 100	> 100	> 100	49.2	> 100	> 100	> 100		
CC(=O)c1ccc2c(c1)oc(=O)n2CCN1CCCCC1	> 100	> 100	> 100	> 100	> 100		> 100	> 100		> 100		> 100	> 100	> 100		> 100	> 100	> 100		
CC1=C(OC2OC(CO)C(O)C(O)C2O)C(=O)C[C@H]2C1=CC[C@@H]1[C@@]2(C)C(=O)C[C@]2(C)[C@@H]([C@@](C)(O)C(=O)CCC(C)(C)O)[C@H](O)C[C@@]12C (stereo not given in full)	> 100	> 100	> 100	> 100	> 100			> 100	> 100	> 100	> 100	> 100	> 100	> 100	> 100	> 100	> 100	> 100		
COc1ccc(CN(CCc2c[nH]c3ccccc23)Cc2ccc(OC)cc2)cc1	> 100	32.9	> 80.4	> 44.4	9.62		> 41.9	9.3	43.1		> 31.7	9.49	20.5	> 100	15.1			> 100		
Cc1cc(Cl)ccc1N=NC(=O)NNc1ccc(Cl)cc1C	80.7	23.3	30.7	48.9	30.7		89.4	21.8	24.1	30.6	30.6	20.7		25.8	33.3	35.3	27.2	63		
O=[N+]([O-])C(=C(N1CCOCC1)N1CCOCC1)/C(Cl)=C(\Cl)[N+](=O)[O-]	> 100	18	28.9	> 65.6	31.4			36.1	39.6	5.19	50.8	2.78	23.2	8.18	34.5	22.1		> 100		
CC(C)CC1c2[nH]c3ccccc3c2C[C@H]2C(=O)NC(CCC(=O)OC(C)(C)C)C(=O)N12 (stereo not given in full)	65.1	> 100	> 100	> 100	> 100		67.2	> 100		60.6	> 100	> 100	> 100	> 100		> 100	> 100	> 100		
CC(=O)Nc1ccc2c(C)c3c4ccccc4n(C)c3nc2n1	45.6	90.4		> 100	51.6			46.2	30.9	34.2	59.8	> 100	> 100	48.6	> 100	52.3	> 100			
C=C[C@@]1(C)CC(=O)[C@]2(O)[C@@]3(C)[C@@H](OC(C)=O)CCC(C)(C)[C@@H]3[C@H](OC(C)=O)[C@H](OC(C)=O)[C@@]2(C)O1	> 100	> 100	> 100	> 100	> 100			> 100	> 100	> 100	> 100	> 100	> 100	> 100	> 100	> 100	> 100	> 100		
Cc1ccccc1N(C)S(=O)(=O)c1ccccc1[N+](=O)[O-]	> 100	> 100	> 100	> 100	> 100		> 100		> 100	> 100	> 100	> 100	> 100	> 100	> 100	> 100	> 100	> 100		
CCCCCc1c2nc(c(CCCCC)c3ccc([nH]3)c(CCCCC)c3ccc([nH]3)c(CCCCC)c3nc1C=C3)C=C2	> 100	> 100	> 100	> 100	> 100		> 100		> 100	> 100	> 100	> 100	> 100	> 100	> 100	> 100	> 100	> 100		
Cc1cc2c(s1)C(=O)c1sccc1C2=O	> 100	3.23	0.377	3.04	3.29		> 25.5	3.17	3.15	0.422	2.03	3.05	3.32	2.52	1.18	0.356	1.56			
CC1OC(O[C@H]2CC[C@]3(C)[C@H]4CC=C5[C@@H]6[C@@H](C)[C@H](C)CC[C@]6(C(=O)O)CC[C@@]5(C(=O)O)[C@]4(C)CC[C@H]3C2(C)C)C(O)C(O)C1O (stereo not given in full)	> 75	> 75		> 75	> 75			> 75	> 75	> 75				> 75	> 75	> 75	> 75	> 75		
CCC(=O)COc1ccc(NC(NC(=O)C(C(F)(F)F)C(F)(F)F)(C(F)(F)F)C(F)(F)F)cc1	37.1	> 100	> 100	> 100	> 100		52.8	> 100	> 100	74.1	> 100	44.9	> 100	> 100	75.3	> 100	62.8			
CSc1cc(Cl)c(C)cc1S(=O)(=O)NC(=O)NNc1ccc(F)c(Cl)c1	> 100	> 100	> 100	> 100	> 100			> 100	> 100	> 100	> 100	> 100	> 100	> 100	> 100	> 100	> 100	> 100		
Cc1c2c(n(CCc3ccccc3)c1C)NN=C(C#N)S2(=O)=O	> 100	> 100	> 100	> 100	> 100		> 100		> 100	> 100	> 100	> 100	> 100	> 100	> 100	> 100	> 100	> 100		
C/C=C(/C)C(=O)O[C@H]1C(C)=C[C@]23C(=O)[C@@H](C=C(COC(C)=O)[C@@H](O)[C@]12O)[C@H]1[C@@H](C[C@H]3C)[C@@]1(C)OC(=O)/C(C)=C\C	10.9	6.21	11.8	5.92	6.48			6.07	5.59	9.65	9.34	10.2	6.38	7.17	4.53	5.47	11.3	6.81		
O=C(Cc1ccccc1)c1ccc2[nH]c(=O)oc2c1	> 100	> 100	> 100		> 100		64.4	> 100		> 100		> 100	64.4	> 100	33.4	> 100	> 100	> 100		
NC1CC(=O)c2cc(Br)sc21 (stereo not given)	> 100	> 100	> 100	> 100	> 100		> 100	> 100	> 100		> 100	> 100	> 100	> 100	> 100	> 100	> 100	> 100		
